Test results from patent US6420371B1, “Quinazolinone-containing pharmaceutical compositions for prevention of neovascularization and for treating malignancies” (Madasit Medical Research Services & Development Co., Ltd., priority 1997, dated 2002).

Key:
[1] = system: bovine aortic endothelial cells; assay: Organization of endothelial cells into capillary-like networks in type I collagen gel; assay type: cell-based; conditions: 0.1 μg/ml Halofuginone; bFGF 1 ng/ml and heparin 1 μg/ml
Protocol: Type I collagen was prepared from the tail tendons of adult Sprague Dawley rats. Briefly, the collagen fibers were solubilized by a slow stirring for 48 h at 4° C. in a sterile, 1/1000 (w/v) acetic acid solution (300 ml for 1 g of collagen). The resulting solution was filtered through a sterile triple gauze and centrifuged at 16,000 g for 1 h at 4° C. The supernatant was then extensively dialyzed against 1/10. DMEM and stored at 4° C. The collagen matrix gel was obtained by simultaneously raising the pH and ionic strength of the collagen solution. For this purpose, 7 vol of collagen solution were quickly mixed with 1 vol of 10X Minimum Essential Medium and 2 vol sodium bicarbonate (0.15 M) [R. F. Nicosa and A. Ottinetti, Lab. Invest, Vol. 63, pp. 115-122 (1990)]. Bovine aortic endothelial cells were seeded into 16 mm wells of a 24-well plate and allowed to grow for 24 h, to obtain a subconfluent monolayer. The culture medium was then removed and 0.4 ml of the cold collagen mixture described above were poured on top of the cell monolayer and allowed to polymerize for 10 min at 37° C. […] The reorganization of the endothelial cell monolayer was monitored and photographed with a Zeiss inverted phase contrast photomicroscope [K. Monesano, et al., J. Cell Biol., Vol. 97, pp. 1648-1652 (1983)].

[2] = system: tumor cells; assay: Tunnel staining of histological tumor sections (necrosis and apoptosis); assay type: in vivo; conditions: tumors from halofuginone treated mice, FIG. 1F panel B
Description: Histological sections of the tumors were subjected to tunnel staining [Gavrieli, Y. et al., J. Cell Biol., Vol. 119, pp. 493-501, 1992], in order to evaluate the extent of tumor cell necrosis and apoptosis. […] The high degree of cell apoptosis and necrosis in halofuginone treated tumors is in all likelihood due to an inhibition of angiogenesis and […] deposition, both critical factors supporting growth and survival of the tumor cells.

[3] = system: collagen type I; conditions: in vitro; cited from earlier work

O=C(CC1NCCCC1O)Cn1cnc2cc(Br)c(Cl)cc2c1=O (stereo not drawn) [Halofuginone]
invasion of endothelial cells into collagen gel and organization into capillary-like tubes [1]: completely inhibited
tunnel staining of tumor sections (cell apoptosis and necrosis) [2]: majority of cells in tumor sections derived from halofuginone treated mice exhibited an intense staining
synthesis of collagen type I in bone chondrocytes [3]: inhibits the synthesis of collagen type I
